The values below come from PMC5218480 (PLoS ONE, 2017).

In this experiment the test system is MV-4-11 cells. Briefly: Gene expression microarray analysis (Affymetrix PrimeView) and GSEA. The class given is cell-based, human. Also noted: RFU PODN (11730768_x_at) / Fold change /veh PODN (11730768_x_at) / RFU LINC00158 (11744669_a_at) / Fold change /veh LINC00158 (11744669_a_at) / RFU DUSP10 (11751237_a_at) / Fold change /veh DUSP10 (11751237_a_at) / RFU ID3 (11757404_x_at) / Fold change /veh ID3 (11757404_x_at) / RFU PLEKHG5 (11737974_s_at) / Fold change /veh PLEKHG5 (11737974_s_at) / RFU LRRC4B (11730491_at) / Fold change /veh LRRC4B (11730491_at) / RFU GIMAP4 (11747438_a_at) / Fold change /veh GIMAP4 (11747438_a_at) / RFU KRT8 (11758183_x_at) / Fold change /veh KRT8 (11758183_x_at) / RFU CNN1 (11734310_a_at) / Fold change /veh CNN1 (11734310_a_at) / RFU VPS37D (11726825_at) / Fold change /veh VPS37D (11726825_at) / RFU C10orf10 (11716522_x_at) / Fold change /veh C10orf10 (11716522_x_at) / RFU KIR2DL2 /// KIR2DL4 /// KIR2DL5A /// KIR2DL5B /// KIR2DS1 /// KIR2DS2 /// KIR2DS3 /// KIR2DS4 /// KIR3DL3 /// KIR3DL3 /// KIR3DS1 (11738374_at) / Fold change /veh KIR2DL2 /// KIR2DL4 /// KIR2DL5A /// KIR2DL5B /// KIR2DS1 /// KIR2DS2 /// KIR2DS3 /// KIR2DS4 /// KIR3DL3 /// KIR3DL3 /// KIR3DS1 (11738374_at) / RFU C1QL1 (11718748_at) / Fold change /veh C1QL1 (11718748_at) / RFU TMPRSS4 (11747572_a_at) / Fold change /veh TMPRSS4 (11747572_a_at) / RFU HAMP (11756126_x_at) / Fold change /veh HAMP (11756126_x_at) / RFU RNFT2 (11725882_a_at) / Fold change /veh RNFT2 (11725882_a_at) / RFU NR4A2 (11747474_a_at) / Fold change /veh NR4A2 (11747474_a_at) / RFU ABCC12 (11746883_a_at) / Fold change /veh ABCC12 (11746883_a_at) / RFU TMEM136 (11760407_x_at) / Fold change /veh TMEM136 (11760407_x_at) / RFU CLDN22 /// WWC2 (11732394_at) / Fold change /veh CLDN22 /// WWC2 (11732394_at) / RFU HLA-DPB1 (11760878_x_at) / Fold change /veh HLA-DPB1 (11760878_x_at) / RFU SPINT1 (11716480_a_at) / Fold change /veh SPINT1 (11716480_a_at) / RFU GAP43 (11754022_s_at) / Fold change /veh GAP43 (11754022_s_at) / RFU A4GNT (11735810_at) / Fold change /veh A4GNT (11735810_at) / RFU PRB3 (11715151_x_at) / Fold change /veh PRB3 (11715151_x_at) / RFU TUBB4B (11761932_at) / Fold change /veh TUBB4B (11761932_at) / RFU CAPN14 (11732068_a_at) / Fold change /veh CAPN14 (11732068_a_at) / RFU TMCC2 (11721928_a_at) / Fold change /veh TMCC2 (11721928_a_at) / RFU IRGQ (11745062_a_at) / Fold change /veh IRGQ (11745062_a_at) / RFU FAM174B (11720279_a_at) / Fold change /veh FAM174B (11720279_a_at) / RFU TMPRSS4 (11748680_a_at) / Fold change /veh TMPRSS4 (11748680_a_at) / RFU FAM212B (11763350_a_at) / Fold change /veh FAM212B (11763350_a_at) / RFU PLEKHG5 (11743358_a_at) / Fold change /veh PLEKHG5 (11743358_a_at) / RFU ZSCAN30 (11745921_a_at) / Fold change /veh ZSCAN30 (11745921_a_at) / RFU CMKLR1 (11741424_a_at) / Fold change /veh CMKLR1 (11741424_a_at) / RFU LOC101060620 /// MAPK8IP1 (11723275_at) / Fold change /veh LOC101060620 /// MAPK8IP1 (11723275_at) / RFU SPTSSB (11747773_x_at) / Fold change /veh SPTSSB (11747773_x_at) / RFU PRSS12 (11739890_at) / Fold change /veh PRSS12 (11739890_at) / RFU BIN1 (11741810_x_at) / Fold change /veh BIN1 (11741810_x_at) / RFU WNT11 (11732464_a_at) / Fold change /veh WNT11 (11732464_a_at) / RFU C10orf10 (11716521_a_at) / Fold change /veh C10orf10 (11716521_a_at) / RFU C5orf56 (11738089_at) / Fold change /veh C5orf56 (11738089_at) / RFU CYB561 (11721691_x_at) / Fold change /veh CYB561 (11721691_x_at) / RFU ANKRD19P (11752326_a_at) / Fold change /veh ANKRD19P (11752326_a_at) / RFU OR2T12 /// OR2T33 /// OR2T8 (11738714_s_at) / Fold change /veh OR2T12 /// OR2T33 /// OR2T8 (11738714_s_at) / RFU VCAN (11748164_a_at) / Fold change /veh VCAN (11748164_a_at) / RFU JSRP1 (11732532_at) / Fold change /veh JSRP1 (11732532_at) / RFU KRTAP10-11 (11738290_x_at) / Fold change /veh KRTAP10-11 (11738290_x_at) / RFU MYO3A (11730013_a_at) / Fold change /veh MYO3A (11730013_a_at) / RFU EBF3 (11725865_a_at) / Fold change /veh EBF3 (11725865_a_at) / RFU CAMK2N1 (11719241_x_at) / Fold change /veh CAMK2N1 (11719241_x_at) / RFU C5orf56 (11738088_a_at) / Fold change /veh C5orf56 (11738088_a_at) / RFU OLFML3 (11715873_a_at) / Fold change /veh OLFML3 (11715873_a_at) / RFU LOC100653217 /// NTM (11731650_a_at) / Fold change /veh LOC100653217 /// NTM (11731650_a_at) / RFU MAPK11 (11762145_a_at) / Fold change /veh MAPK11 (11762145_a_at) / RFU FIZ1 (11724087_x_at) / Fold change /veh FIZ1 (11724087_x_at) / RFU OASL (11726364_x_at) / Fold change /veh OASL (11726364_x_at) / RFU SOX15 (11748057_x_at) / Fold change /veh SOX15 (11748057_x_at) / RFU CD79A (11719716_a_at) / Fold change /veh CD79A (11719716_a_at) / RFU HIST1H1D (11736915_at) / Fold change /veh HIST1H1D (11736915_at) / RFU CASKIN2 (11723855_a_at) / Fold change /veh CASKIN2 (11723855_a_at) / RFU LOC730098 (11760151_x_at) / Fold change /veh LOC730098 (11760151_x_at) / RFU OR4N2 (11742367_at) / Fold change /veh OR4N2 (11742367_at) / RFU PRRT2 (11749266_a_at) / Fold change /veh PRRT2 (11749266_a_at) / RFU SNX32 (11753110_a_at) / Fold change /veh SNX32 (11753110_a_at) / RFU CDHR5 (11726645_a_at) / Fold change /veh CDHR5 (11726645_a_at) / RFU RCAN1 (11760418_a_at) / Fold change /veh RCAN1 (11760418_a_at) / RFU FAM167A (11723789_a_at) / Fold change /veh FAM167A (11723789_a_at) / RFU FAM26E (11764081_at) / Fold change /veh FAM26E (11764081_at) / RFU ISYNA1 (11749810_s_at) / Fold change /veh ISYNA1 (11749810_s_at) / RFU ACY1 (11761880_at) / Fold change /veh ACY1 (11761880_at) / RFU 11764098_at / Fold change /veh 11764098_at / RFU SAMD14 (11745864_x_at) / Fold change /veh SAMD14 (11745864_x_at) / RFU NPB (11741838_a_at) / Fold change /veh NPB (11741838_a_at) / RFU TMPRSS6 (11731388_a_at) / Fold change /veh TMPRSS6 (11731388_a_at) / RFU KRTAP10-2 (11738614_at) / Fold change /veh KRTAP10-2 (11738614_at) / RFU ARHGAP8 /// PRR5-ARHGAP8 (11727945_x_at) / Fold change /veh ARHGAP8 /// PRR5-ARHGAP8 (11727945_x_at) / RFU KRTAP5-7 /// NADSYN1 (11734609_at) / Fold change /veh KRTAP5-7 /// NADSYN1 (11734609_at) / RFU RASL12 (11751679_a_at) / Fold change /veh RASL12 (11751679_a_at) / RFU CDKN2B (11736163_a_at) / Fold change /veh CDKN2B (11736163_a_at) / RFU PRF1 (11729649_at) / Fold change /veh PRF1 (11729649_at) / RFU, ZNF638 /// ZNF638-IT1 / Fold change vs veh, ZNF638 /// ZNF638-IT1 / RFU, PANK3 / Fold change vs veh, PANK3 / RFU, SH3YL1 / Fold change vs veh, SH3YL1 / RFU, ZEB2 / Fold change vs veh, ZEB2 / RFU, NRIP1 / Fold change vs veh, NRIP1 / RFU, PTTG1IP / Fold change vs veh, PTTG1IP / RFU, CAPN2 / Fold change vs veh, CAPN2 / RFU, MED14 / Fold change vs veh, MED14 / RFU, SNORA58 / Fold change vs veh, SNORA58 / RFU, C1orf63 / Fold change vs veh, C1orf63 / RFU, LRRFIP1 / Fold change vs veh, LRRFIP1 / RFU, NDUFAF7 / Fold change vs veh, NDUFAF7 / RFU, SLC12A2 / Fold change vs veh, SLC12A2 / RFU, IBTK / Fold change vs veh, IBTK / RFU, ESF1 / Fold change vs veh, ESF1 / Fold change vs veh, TMEM50B / RFU, TAOK1 / Fold change vs veh, TAOK1 / RFU, ACBD3 / Fold change vs veh, ACBD3 / RFU, TMA16 / Fold change vs veh, TMA16 / RFU, RWDD3 / Fold change vs veh, RWDD3 / RFU, BCAT1 / Fold change vs veh, BCAT1 / RFU, EDEM3 / Fold change vs veh, EDEM3 / RFU, TMEM33 / Fold change vs veh, TMEM33 / RFU, WDR75 / Fold change vs veh, WDR75 / RFU, AHCTF1 / Fold change vs veh, AHCTF1 / RFU, TFRC / Fold change vs veh, TFRC / RFU, ZDHHC17 / Fold change vs veh, ZDHHC17 / RFU, NOM1 / Fold change vs veh, NOM1 / RFU, ARL8B / Fold change vs veh, ARL8B / RFU, ZBTB11 / Fold change vs veh, ZBTB11 / RFU, TAMM41 / Fold change vs veh, TAMM41 / RFU, KIAA1704 /// LOC100996395 / Fold change vs veh, KIAA1704 /// LOC100996395 / RFU, ING1 / Fold change vs veh, ING1 / RFU, TRMT61B / Fold change vs veh, TRMT61B / RFU, FUBP3 / Fold change vs veh, FUBP3 / RFU, TP53 / Fold change vs veh, TP53 / RFU, TNKS2 / Fold change vs veh, TNKS2 / RFU, ZFP14 / Fold change vs veh, ZFP14 / RFU, ACTR2 / Fold change vs veh, ACTR2 / RFU, PPP3R1 / Fold change vs veh, PPP3R1 / RFU, PIK3R1 / Fold change vs veh, PIK3R1 / RFU, HNRNPA1 / Fold change vs veh, HNRNPA1 / RFU, RNF170 / Fold change vs veh, RNF170 / RFU, ZNF28 / Fold change vs veh, ZNF28 / RFU, RNGTT / Fold change vs veh, RNGTT / RFU, OGT / Fold change vs veh, OGT / RFU, BRD1 / Fold change vs veh, BRD1 / RFU, MARS / Fold change vs veh, MARS / RFU, ZNF655 / Fold change vs veh, ZNF655 / RFU, FAHD1 / Fold change vs veh, FAHD1 / RFU, BDP1 / Fold change vs veh, BDP1 / RFU, LRRCC1 / Fold change vs veh, LRRCC1 / RFU, ARID1A / Fold change vs veh, ARID1A / RFU, ZNF146 / Fold change vs veh, ZNF146 / RFU, ZNF330 / Fold change vs veh, ZNF330 / RFU, GPN3 / Fold change vs veh, GPN3 / RFU, C9orf123 / Fold change vs veh, C9orf123 / RFU, N4BP2L2 / Fold change vs veh, N4BP2L2 / RFU, ARFIP1 / Fold change vs veh, ARFIP1 / RFU, FAM179B / Fold change vs veh, FAM179B / RFU, BCL10 / Fold change vs veh, BCL10 / RFU, UHRF1BP1L / Fold change vs veh, UHRF1BP1L / RFU, BET1 / Fold change vs veh, BET1 / RFU, CNOT2 / Fold change vs veh, CNOT2 / RFU, ZNF268 / Fold change vs veh, ZNF268 / Fold change vs veh, ZNF507 / RFU, DGCR2 / Fold change vs veh, DGCR2 / RFU, WDSUB1 / Fold change vs veh, WDSUB1 / Fold change vs veh, HSP90B1 /// MIR3652 / RFU, ADSS / Fold change vs veh, ADSS / RFU, GK / Fold change vs veh, GK / RFU, ZNF148 / Fold change vs veh, ZNF148 / RFU, TAF9 / Fold change vs veh, TAF9 / RFU, SLC1A5 / Fold change vs veh, SLC1A5 / RFU, SLMO2 / Fold change vs veh, SLMO2 / RFU, ABCC4 / Fold change vs veh, ABCC4 / RFU, LOC101060439 /// RAP1B / Fold change vs veh, LOC101060439 /// RAP1B / RFU, RFX7 / Fold change vs veh, RFX7 / RFU, GTPBP10 / Fold change vs veh, GTPBP10 / RFU, CNEP1R1 / Fold change vs veh, CNEP1R1 / RFU, BIVM-ERCC5 /// ERCC5 / Fold change vs veh, BIVM-ERCC5 /// ERCC5 / RFU, ILF3 / Fold change vs veh, ILF3 / RFU 11762660_at / Fold change /veh 11762660_at / RFU VCAN (11757783_s_at) / Fold change /veh VCAN (11757783_s_at) / RFU DDX43 (11728927_at) / Fold change /veh DDX43 (11728927_at) / RFU KRT8 (11758188_x_at) / Fold change /veh KRT8 (11758188_x_at) / RFU NKD1 (11759106_at) / Fold change /veh NKD1 (11759106_at) / RFU SRD5A1 (11742802_a_at) / Fold change /veh SRD5A1 (11742802_a_at) / RFU TPSAB1 /// TPSB2 (11721975_s_at) / Fold change /veh TPSAB1 /// TPSB2 (11721975_s_at) / RFU GSTM3 (11746129_a_at) / Fold change /veh GSTM3 (11746129_a_at) / RFU IL23R (11737362_x_at) / Fold change /veh IL23R (11737362_x_at) / RFU TMEM51 (11727254_a_at) / Fold change /veh TMEM51 (11727254_a_at) / RFU PIWIL2 (11732686_x_at) / Fold change /veh PIWIL2 (11732686_x_at) / RFU ORM1 (11744905_x_at) / Fold change /veh ORM1 (11744905_x_at) / RFU CCDC152 (11743942_at) / Fold change /veh CCDC152 (11743942_at) / RFU ECM1 (11717891_a_at) / Fold change /veh ECM1 (11717891_a_at) / RFU IL23R (11748794_a_at) / Fold change /veh IL23R (11748794_a_at) / RFU TNFAIP8L3 (11732012_x_at) / Fold change /veh TNFAIP8L3 (11732012_x_at) / RFU MBOAT4 (11741988_at) / Fold change /veh MBOAT4 (11741988_at) / RFU 11764193_at / Fold change /veh 11764193_at / RFU TMEM53 (11763286_at) / Fold change /veh TMEM53 (11763286_at) / RFU MAGEB2 (11727129_at) / Fold change /veh MAGEB2 (11727129_at) / RFU TMEM200A (11744735_a_at) / Fold change /veh TMEM200A (11744735_a_at) / RFU CCDC152 (11751479_a_at) / Fold change /veh CCDC152 (11751479_a_at) / RFU FAM211A (11726209_a_at) / Fold change /veh FAM211A (11726209_a_at) / RFU RGS16 (11746705_a_at) / Fold change /veh RGS16 (11746705_a_at) / RFU VCAN (11755009_s_at) / Fold change /veh VCAN (11755009_s_at) / RFU RHOB (11743442_s_at) / Fold change /veh RHOB (11743442_s_at) / RFU RGS16 (11720943_a_at) / Fold change /veh RGS16 (11720943_a_at) / RFU RGS16 (11720944_at) / Fold change /veh RGS16 (11720944_at) / RFU, VPS4B / Fold change vs veh, VPS4B / RFU, CREB1 / Fold change vs veh, CREB1 / RFU, DNAJC13 / Fold change vs veh, DNAJC13 / RFU, GNAQ / Fold change vs veh, GNAQ / RFU, CDK5R1 / Fold change vs veh, CDK5R1 / RFU, ZRANB3 / Fold change vs veh, ZRANB3 / RFU, CUL4A / Fold change vs veh, CUL4A / RFU, CCNY / Fold change vs veh, CCNY / RFU, UFL1 / Fold change vs veh, UFL1 / RFU, COG3 / Fold change vs veh, COG3 / RFU, DIAPH2 / Fold change vs veh, DIAPH2 / RFU, SKA2 / Fold change vs veh, SKA2 / RFU, AFF3 / Fold change vs veh, AFF3 / RFU, LMF1 / Fold change vs veh, LMF1 / RFU, IPO11 / Fold change vs veh, IPO11 / RFU, DFFB / Fold change vs veh, DFFB / RFU, FOXP1 / Fold change vs veh, FOXP1 / RFU, CARD8 / Fold change vs veh, CARD8 / RFU, STRN3 / Fold change vs veh, STRN3 / RFU, ADK / Fold change vs veh, ADK / RFU, RASSF2 / Fold change vs veh, RASSF2 / RFU, WIPF1 / Fold change vs veh, WIPF1 / RFU, LARP1B / Fold change vs veh, LARP1B / RFU, RASA1 / Fold change vs veh, RASA1 / RFU, RB1 / Fold change vs veh, RB1 / RFU, PPFIA1 / Fold change vs veh, PPFIA1 / RFU, MAT2A / Fold change vs veh, MAT2A / RFU, CCT5 / Fold change vs veh, CCT5 / RFU, WDR92 / Fold change vs veh, WDR92 / RFU, CUX1 / Fold change vs veh, CUX1 / RFU, TTC7A / Fold change vs veh, TTC7A / RFU, TMEM135 / Fold change vs veh, TMEM135 / RFU, DEPTOR / Fold change vs veh, DEPTOR / RFU, CPM / Fold change vs veh, CPM / RFU, DNAJB6 / Fold change vs veh, DNAJB6 / RFU, CACNA2D3 / Fold change vs veh, CACNA2D3 / RFU, DTX4 / Fold change vs veh, DTX4 / RFU, TFCP2 / Fold change vs veh, TFCP2 / RFU, GMCL1 /// GMCL1P1 / Fold change vs veh, GMCL1 /// GMCL1P1 / RFU, AEBP2 / Fold change vs veh, AEBP2 / RFU, SNHG1 /// SNORD22 /// SNORD25 /// SNORD26 /// SNORD27 /// SNORD28 /// SNORD29 /// SNORD31 / Fold change vs veh, SNHG1 /// SNORD22 /// SNORD25 /// SNORD26 /// SNORD27 /// SNORD28 /// SNORD29 /// SNORD31 / Fold change (Aza/veh), C12orf56 (ProbeSet 11735607_a_at) / Fold change (ACY-1035/veh), C12orf56 (ProbeSet 11735607_a_at) / Fold change (Aza/veh), FGFR1OP (ProbeSet 11751329_s_at) / Fold change (ACY-1035/veh), FGFR1OP (ProbeSet 11751329_s_at) / Fold change (Aza/veh), VPS36 (ProbeSet 11739960_a_at) / Fold change (ACY-1035/veh), VPS36 (ProbeSet 11739960_a_at) / RFU SYPL1 (11715823_x_at) / Fold change /veh SYPL1 (11715823_x_at) / RFU IGFBP7 (11715501_s_at) / Fold change /veh IGFBP7 (11715501_s_at) / RFU REEP3 (11722064_at) / Fold change /veh REEP3 (11722064_at) / RFU IGLL1 (11728026_x_at) / Fold change /veh IGLL1 (11728026_x_at): dose or concentration left out as unconfirmed. The following applies: ProbeSet 11720270_a_at; LIST B.

As for `Nc1ncn([C@@H]2O[C@H](CO)[C@@H](O)[C@H]2O)c(=O)n1` [azacitidine], the “RFU, IBTK” value amounted to 397.77 RFU.
